Test results from PubChem BioAssay (NCI).
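Protocol summary: plate cells (96-well), add compound at 5 concentrations, incubate 48 h, interpolate endpoints linearly. TGI is the concentration that stops growth completely.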

Columns and labels:
Assay in all cases: growth of human tumour cells (NCI), 48 h
KM12 colon = system: KM12 colon
SW-620 colon = system: SW-620 colon
SK-MEL-5 melanoma = system: SK-MEL-5 melanoma
SR leukemia = system: SR leukemia
NCI-H226 lung = system: NCI-H226 lung
HCT-15 colon = system: HCT-15 colon
CCRF-CEM leukemia = system: CCRF-CEM leukemia
HCT-116 colon = system: HCT-116 colon
OVCAR-8 ovarian = system: OVCAR-8 ovarian
COLO 205 colon = system: COLO 205 colon
M14 melanoma = system: M14 melanoma
EKVX NSCLC = system: EKVX NSCLC
ACHN renal = system: ACHN renal
NCI-H460 lung = system: NCI-H460 lung
UACC-62 melanoma = system: UACC-62 melanoma
TK-10 renal = system: TK-10 renal
MDA-MB-231 breast = system: MDA-MB-231 breast
SN12C renal = system: SN12C renal
MALME-3M melanoma = system: MALME-3M melanoma

| Compound | TGI (KM12 colon) | TGI (SW-620 colon) | TGI (SK-MEL-5 melanoma) | TGI (SR leukemia) | TGI (NCI-H226 lung) | TGI (HCT-15 colon) | TGI (CCRF-CEM leukemia) | TGI (HCT-116 colon) | TGI (OVCAR-8 ovarian) | TGI (COLO 205 colon) | TGI (M14 melanoma) | TGI (EKVX NSCLC) | TGI (ACHN renal) | TGI (NCI-H460 lung) | TGI (UACC-62 melanoma) | TGI (TK-10 renal) | TGI (MDA-MB-231 breast) | TGI (SN12C renal) | TGI (MALME-3M melanoma) |
| --- | --- | --- | --- | --- | --- | --- | --- | --- | --- | --- | --- | --- | --- | --- | --- | --- | --- | --- | --- |
| CC(C)(C)c1cc2c(O)c(c1)COCc1cc(C(C)(C)C)cc(c1O)COCc1cc(C(C)(C)C)cc(c1O)COC2 | > 100 µM | > 100 µM | > 100 µM | > 100 µM | > 100 µM | > 100 µM | > 100 µM | > 100 µM | > 100 µM | > 100 µM | > 100 µM | > 100 µM | > 100 µM | > 100 µM | > 100 µM | > 100 µM | – | – | – |
| COC(=O)c1ccccc1Nc1ccccc1C(=O)OC | > 100 µM | > 100 µM | > 100 µM | – | 71.6 µM | > 100 µM | > 100 µM | > 100 µM | > 100 µM | > 100 µM | > 100 µM | > 100 µM | > 100 µM | > 100 µM | > 100 µM | > 100 µM | > 100 µM | > 100 µM | 96.8 µM |
| O=C(NC(Cc1ccccc1)P(=O)(O)c1ccccc1)OCc1ccccc1 (centres undefined) | > 100 µM | > 100 µM | > 100 µM | > 100 µM | > 100 µM | > 100 µM | > 100 µM | > 100 µM | > 100 µM | > 100 µM | > 100 µM | > 100 µM | > 100 µM | > 100 µM | > 100 µM | > 100 µM | – | > 100 µM | > 100 µM |
| Cc1ccc2c(c1)C/C(=C\c1ccccc1C(=O)O)C2=O | > 100 µM | > 100 µM | > 100 µM | 91.3 µM | > 100 µM | > 100 µM | > 100 µM | > 100 µM | > 100 µM | > 100 µM | – | > 100 µM | > 100 µM | > 100 µM | > 100 µM | > 100 µM | – | > 100 µM | > 100 µM |
| NC1=CN(Cc2ccccc2)C2=N/C(=C\c3ccco3)C(=O)N12 | > 100 µM | > 100 µM | > 100 µM | – | > 100 µM | > 100 µM | > 100 µM | > 100 µM | > 100 µM | > 100 µM | > 100 µM | > 100 µM | > 100 µM | > 100 µM | > 100 µM | > 100 µM | > 100 µM | > 100 µM | > 100 µM |
| CCOC(=O)C1C(=O)c2cccc(OC)c2C2COC(=O)N12 (centres undefined) | > 100 µM | > 100 µM | > 100 µM | > 100 µM | > 100 µM | > 100 µM | > 100 µM | > 100 µM | > 100 µM | > 100 µM | > 100 µM | > 100 µM | > 100 µM | > 100 µM | > 100 µM | > 100 µM | – | > 100 µM | > 100 µM |
| NCCSc1nc(N)c2ncn(C3OC(CO)C(O)C3O)c2n1 (centres undefined) | > 100 µM | > 100 µM | > 100 µM | > 100 µM | > 100 µM | > 100 µM | > 100 µM | > 100 µM | > 100 µM | > 100 µM | > 100 µM | – | > 100 µM | > 100 µM | > 100 µM | > 100 µM | – | > 100 µM | > 100 µM |
| COc1cc(N(CCC#N)CCC#N)ccc1/C(N=Nc1cccc(C)c1)=N\NC(=O)c1ccc(C)cc1 | > 100 µM | > 100 µM | > 100 µM | – | > 100 µM | > 100 µM | > 100 µM | > 100 µM | > 100 µM | > 100 µM | > 100 µM | > 100 µM | 63 µM | > 100 µM | > 100 µM | > 100 µM | > 100 µM | > 100 µM | > 100 µM |
| Nc1nc2c(ncn2CC(CO)CC(c2ccccc2)P(=O)(O)O)c(=O)[nH]1 (centres undefined) | > 100 µM | > 100 µM | > 100 µM | > 100 µM | > 100 µM | > 100 µM | > 100 µM | > 100 µM | > 100 µM | > 100 µM | > 100 µM | > 100 µM | > 100 µM | > 100 µM | > 100 µM | > 100 µM | – | > 100 µM | > 100 µM |
| N#CCCN(CCC#N)c1ccc(/C=C2\N=C(c3ccccc3)N(c3ccccc3)C2=O)cc1 | > 100 µM | > 100 µM | > 100 µM | – | > 100 µM | > 100 µM | > 100 µM | > 100 µM | > 100 µM | > 100 µM | > 100 µM | > 100 µM | > 100 µM | > 100 µM | > 100 µM | > 100 µM | > 100 µM | > 100 µM | > 100 µM |
| CC(=O)Oc1ccc2c3c1[C@@H]1O[C@@H]1c1cccc(c1-3)[C@@H]1O[C@H]21 | 4.47 µM | – | 3.56 µM | – | 84.2 µM | – | 3.94 µM | 2.87 µM | 2.85 µM | 4.36 µM | 3.27 µM | – | 3.74 µM | – | 3.44 µM | 6.12 µM | 3.64 µM | – | – |
| CC(C)[C@H]1NC(=O)[C@H]2N=C(O[C@@H]2C)[C@@H]2CCCN2C(=O)[C@H](Cc2ccccc2)NC(=O)[C@@H]2COC(=N2)[C@@H](Cc2ccccc2)NC(=O)[C@@H]2COC1=N2 | > 100 µM | > 100 µM | > 100 µM | – | > 100 µM | > 100 µM | > 100 µM | > 100 µM | > 100 µM | > 100 µM | > 100 µM | > 100 µM | > 100 µM | – | > 100 µM | > 100 µM | > 100 µM | > 100 µM | > 100 µM |
| CC1CC/C(=C\c2ccc(F)cc2)C2=C1C(c1ccc(F)cc1)n1c(s/c(=C\c3ccc(Cl)cc3)c1=O)=N2 (centres undefined) | > 100 µM | > 100 µM | > 100 µM | – | – | > 100 µM | > 100 µM | > 100 µM | > 100 µM | – | > 100 µM | > 100 µM | > 100 µM | – | > 100 µM | > 100 µM | > 100 µM | > 100 µM | – |
